Data taken from patent US20060257875A1, “Affinity screening using "one-bead-one-compound" libraries” (Carlsberg A/S, priority 2003, published 2006).
Values joined by “and” are separate entries in the source; they are usually repeats but may differ in a detail not shown here. Equal entries are not always repeated. “Also recorded” adds a separate entry of the source.

Assays:
[1] = test system: porcine reproductive and respiratory virus infected macrophage proteins; assay: Solid phase screening of small molecule Library 7 with labeled viral and porcine macrophage proteins; type: binding; settings: Virus-infected Macrophages, (V) indicates virus proteins
Text: (§1) Alternatively, the fluorescent ligand library beads containing bound protein obtained as described in Examples 47, 48, 49 and 51 were sorted using a COPAS (250) NF Bead Sorter (Union Biometrica, Somerville, Mass.) equipped with a dual detector. Both the cyanine dyes used in the labeling procedure, namely Cy 2 (emission wavelength—510 nm) and Cy 3 (emission wavelength—570 nm) were simultaneously excited at […] The bead selection window was then set-up such that all beads containing significant green fluorescence and no red flourescence were isolated. The unselected beads were then resorted to obtain beads containing red fluorescence (proteins from basal cells). The selected red and green fluorescent beads were then sorted into brightly and less brightly fluorescent beads, to give an indication of either the strength of binding of the ligand to a particular protein or the amount of protein present in the sample binding to the ligand.
(§2) Ligands can be completely or partially identified by MALDI_TOF-MS whether or not the library is synthesized by ladder synthesis. […] The ligand is cleaved from the resin bead depending on the type of linker used. […] Peptide fragments (ladder synthesis) or single compounds were extracted from the bead with 0.5 AL CH3CN, then 0.5 FL 70% CH3CN/H2O. […] In the case of the acid labile Rink linker (Library 7), the compound was released from the bead by treatment with 95% TFA or 30 min. The TFA solution was evaporated and the cleaved compounds were extracted in 2 μL 70% acetonitrile+0.1% TFA. This mixture was then transferred to a stainless steel disc to which 0.4 μL of CHC matrix+1.0% TFA was added. An additional 0.4 μL of CHC matrix+1.0% TFA was added to complete sample application.
(§3) A typical analysis employed 100-300 laser shots. […] A typical analysis employed 200-300 laser shots. The possible identity of the ligand was determined (Narrowed down) by comparing the recorded mass of the ligand with the masses of all possible compounds formed in the library. This comparison was carried out using an in-house created computer program The precise identity of the ligand can then be confirmed using MS fragmentation as described in Example 41.
(§4) Isolated proteins that bound to specific ligands were identified using peptide mass fingerprinting. Mass spectra were recorded on a Bruker Reflex m MALDI time-of-flight mass spectrometer (Bruker-Daltonics, Bremen, Germany) operated in the positive reflectron mode using delayed extraction. Measurements were performed using the following parameters: Power 83-84 V; lens 7.300. The sum of 200-300 shots was used for each spectrum.
(§5) The spectra were calibrated using bradykinin peptide. In some cases, internal mass calibration was performed using a porcine trypsin autolysis product Peptide masses were searched against peptide mass maps in the National Center for Biotechnology Information (NCBI) database using the following search engines found on the world wide web (www.) for each of: • MS-FIT (prospector.ucsf.edu/ucsfhtml/msfit.htm), • Profound (129.85.19.192/profound_biniWebProFound.exe), and • MASCOT (matrixscience.com).
(§6) A search was performed using the NCBI bacterial (E. coli) database and the mammalian databases for the isolated proteins from the E. coli and myocyte samples, respectively, and the Swiss Prot mammalian databases and the Swiss Prot viral databases were searched to identify the porcine macrophage proteins and proteins, respectively. A molecular mass range was estimated from 0-250 K Da, allowing a mass accuracy that varied from 0.1 Da (some cases 0.3 Da) for each peptide mass. A large pI range from 0-14 or 0-12 was considered for each search. If no proteins matched, the mass window was extended. Partial enzyme cleavages allowing for two missed cleavage sites and modification of cysteine by alkylation were considered in the search approaches. A protein was considered identified if the matched peptides covered at least 30% of the complete sequence. […]

[2] = test system: normal porcine macrophage proteins; assay: as above; type: binding; settings: Normal Macrophages
Text: as §1, §2, §3, §4, §5, §6

[3] = test system: phenylephrine (PE)-treated myocyte proteins; assay: Solid phase screening of Library 1 with labeled myocyte proteins; bound proteins identified by on-bead digest and peptide mass fingerprinting; type: binding, neonatal Wistar rats; settings: Library 1 ligand on PEGA4000 bead; Phenylephrine Treated (Hyperthrophic) Myocytes
Description: Myocytes were prepared from 1 to 5 day old neonatal Wistar rats (University of Copenhagen) according to literature procedure described in Busk et al., 2002, Cardiovasc. Res., 56: 64-75 and plated into eight P10 culture plates at 6 million cells/plate.
Protein was extracted from myocytes prepared as described above for Example 9, using a new procedure modified from existing protocols, primarily: Arrott, et al., 1998, Anal Biochem. 258: 1-18. The media was removed from plates and adhered cells were treated for 10 minutes with ice cold phosphate buffer (0.25 mL, 10 mM, pH 7.5, augmented with 0.15 M NaCl 60 mM Benzamidine HCl, 5 mM EDTA, 10 μg/n E-64, 10 μg/mL Leu-peptin, 10 μg/mL Pepstatin A, and 1 mM PMSF). The cells were scraped off the plates and then lysed (on ice) in a sonicator (2×) using 10 seconds off/10 seconds on cycles.
The resulting suspension was augmented with CHAPS, DTT, and urea to a final concentration of CHAPS (1% w/v), DTT (5 mM), and urea (8 M). After 10-15 minutes on ice, the solution was centrifuged for 10 minutes at 15,000 rpm at 4° C. The supernatant was removed and protein content quantified using the NanoOrange Protein test (Molecular Probes, Eugene, Oreg.): Total protein recovered: 70.5 μg for PE-treated cells and 60 μg for basal cells.
Fluorescent dye Oregon Green 514 (OR) (Molecular Probes) was used to label the healthy/basal cells while Rhodamine Red (RR) (Molecular Probes) was used to label the PE-treated cells. The labeling procedures were carried out according to the manufacturer's protocol. The protein solutions (0.25 mL, 50.4 μg for PE cells and 0.25 mL, 42.8 μg for basal cells) were dialyzed against a solution of 10 mM phosphate buffer, 0.15 M NaCl, pH 7.5 and then 1 M NaHCO3 (0.025 mL) added to a final pH of 8.5. 10 μL of dye in dry DMF (10 mg/mL) was added and the sample stirred at room temperature for 2 hours. The protein solution was dialyzed extensively against 10 mM phosphate buffer, 0.15 M NaCl, pH 7.5, to remove excess dye.
Ligand library 1 (200 mg), prepared as described for Example 5, was transferred to a syringe fitted with a stop-valve and the ligand-beads were washed for 10 minutes (3×) with 10 mM phosphate buffer, pH 6.8, supplemented with 0.15 M NaCl, 1 mM Ca^2+, 1 mM Zn^2+, 1 mM Mn^2+, 1 mM Cu^2+, and 1 mM Mg^2+ (3 mL). The ligand-beads were treated with a 1% BSA solution for 30 minutes, then washed with buffer (1×). A mixture of labeled myocyte proteins, including both PE-induced protein (138 μL, 40 μg) and basal protein (167 μL, 40 μg) obtained as described above for Example 11, was prepared in 1.2 mL buffer, and added to the ligand library in the syringe. The proteins and ligand library were incubated at room temperature for 16 hours. The library was then washed with buffer for 5 minutes then with water for 3×5 minutes. The library was examined under a fluorescence microscope and brightly fluorescent red, green, and yellow beads (yellow indicative of both dyes red and green binding; the majority of the beads) were present, as well as unlabelled beads. The fluorescent beads were separated and retained for analysis.
The fluorescent ligand library beads containing bound protein obtained as described in Example 15 were sorted using a COPAS (250) NF Bead Sorter (Union Biometrica, Somerville, Mass.) equipped with a single flourescence emission. Beads emitting fluorescence of only one color contain proteins from one physical state, e.g. proteins expressed only in the PE-induced hypertrophic state (red) or proteins expressed only in the basal state (green). Since the instrument measures one fluorescence emission at a time, beads containing one type of color fluorescence were first sorted and then beads were resorted for emissions from the other fluorescence color. The library was first sorted such that all beads containing significant green fluorescence, basal proteins from healthy myocytes, were isolated. […]

[4] = test system: cardiac myocytes; assay: Inhibition of DNA synthesis (cardiac hypertrophy) in cardiac myocytes treated with peptides (FIG. 3); type: cell-based
Text: The columns indicate average induction of DNA synthesis in cardiac myocytes treated with peptides. The Y-axis indicates fold induction (control basal=100%).
The importance of six ligands in cardiac hypertrophy was investigated by examining the effect of the ligand on the increase in protein synthesis (meaured by increase in DNA synthesis) in myocytes that had been treated with serum to induce a hypertrophic state (FIG. 3).

[5] = hypertrophied myocytes (treated with serum to induce a hypertrophic state)

## COc1ccc(OC)c(-c2ccc(OC)c(C(=O)N[C@@H](Cc3c[nH]cn3)C(=O)O)c2OC)c1
[1]
  Identified Protein(s): Carbohydrate (chondroitin synthase 2) (28466981); Glucosidase II alpha-subunit (gi5452936); Similar to chromosome 9 reading frame 24 (gi29437020) (V) Envelope glycoprotein C2V3 region (gi3925092); Envelope glycoprotein (gi15705767)

## COc1ccc(OC)c(-c2ccc(C(=O)N[C@@H](Cc3ccc(OC)c(OC)c3)C(=O)O)o2)c1
[1]
  Identified Protein(s): Carbohydrate (chondroitin synthase 2) (28466981); Glucosidase II alpha-subunit (gi5452936); Similar to chromosome 9 reading frame 24 (gi29437020) (V) Envelope glycoprotein C2V3 region (gi3925092); Envelope glycoprotein (gi15705767)

## COc1ccc(-c2ccc(C(=O)O)cc2)c(OC)c1C(=O)N[C@@H](Cc1c[nH]cn1)C(=O)O
[1]
  Identified Protein(s): Carbohydrate (chondroitin synthase 2) (28466981); Glucosidase II alpha-subunit (gi5452936); Similar to chromosome 9 reading frame 24 (gi29437020) (V) Envelope glycoprotein C2V3 region (gi3925092); Envelope glycoprotein (gi15705767)

## COc1ccc(C[C@H](NC(=O)c2ccc(-c3ccc(C(=O)O)cc3)o2)C(=O)O)cc1OC
[1]
  Identified Protein(s): Carbohydrate (chondroitin synthase 2) (28466981); Glucosidase II alpha-subunit (gi5452936); Similar to chromosome 9 reading frame 24 (gi29437020) (V) Envelope glycoprotein C2V3 region (gi3925092); Envelope glycoprotein (gi15705767)

## NC[C@H](NC(=O)c1cccc(-c2ccco2)n1)C(=O)O
[2]
  Identified Protein(s): Salt inducible kinase 2 (27529963); PVHL-ubiqquitin interacting enzyme 2 (23208620); Similar to glyceral- dehyde-3-phosphate dehydrogenase (gi27686413)

## Pal-Gly-Abi-Hyp-Pya-Trp
[3]
  Identified Protein(s): NAS putative unclassified (gi 12861084); Putative Zn; also recorded: finger protein 64 (gi 12849329)

## O=C(O)[C@@H]1CCCN1C(=O)c1ccc(-c2ccco2)o1
[2]
  Identified Protein(s): Salt inducible kinase 2 (27529963); PVHL-ubiqquitin interacting enzyme 2 (23208620); Similar to glyceral- dehyde-3-phosphate dehydrogenase (gi27686413)

## Abi-Thr-Hyp-Hyp-His-
[3]
  Identified Protein(s): Phosphofructokinase (gi 7331123); Selenium binding pro-; also recorded: tein (gi 8848341/6677907); (Serine arginine rich pro-; also recorded: tein kinase (LA); Guanylate kinase (gi 20986250) (LA),; also recorded: (M); SPTR (gi 12842823) (M, Actin interacting protein
[4]; [5]
  extent of DNA synthesis: reduced the extent of DNA synthesis
[4]; normal myocytes
  extent of DNA synthesis: reduced the extent of DNA synthesis

## COc1ccc(-c2ccc(C(=O)NCC(=O)O)o2)cc1
[2]
  Identified Protein(s): Salt inducible kinase 2 (27529963); PVHL-ubiqquitin interacting enzyme 2 (23208620); Similar to glyceral- dehyde-3-phosphate dehydrogenase (gi27686413)

## Phe-Gua-Pal-Tyr-Gua-Tyr
[3]
  Identified Protein(s): Glucose-6-Phosphatase (gi 6679893/15488608); Succinate; also recorded: dehydrogenase; ARL-interacting protein (gi 4927202); also recorded: (M); SPTR (gi 12834839) (M), Nucleic acid binding
[4]; [5]
  extent of DNA synthesis: reduced the extent of DNA synthesis
[4]; normal myocytes
  extent of DNA synthesis: reduced the extent of DNA synthesis

## COc1ccccc1-c1ccc(C(=O)NCC(=O)O)o1
[2]
  Identified Protein(s): Salt inducible kinase 2 (27529963); PVHL-ubiqquitin interacting enzyme 2 (23208620); Similar to glyceral- dehyde-3-phosphate dehydrogenase (gi27686413)

## CC(O)[C@H](NC(=O)c1cc(-c2ccco2)cs1)C(=O)O (some centres unmarked)
[1]
  Identified Protein(s): Unnamed protein product (26336134); Seri- ne/threonine kinase 9/cylin dependent Serine/threonine kinase 9(23271297/4507281); Caveolin 1(gi 4972627/AAD347221) (V) Envelope glycoprotein (gi 3832399)

## Cc1ccc(-c2csc(C(=O)NCC(=O)O)c2)cc1
[2]
  Identified Protein(s): Salt inducible kinase 2 (27529963); PVHL-ubiqquitin interacting enzyme 2 (23208620); Similar to glyceral- dehyde-3-phosphate dehydrogenase (gi27686413)

## Pya-Gua-Abi-Asp-Abi-Tyr
[3]
  Identified Protein(s): SPTR (gi 20869775) (M); Ribosomal proteins (60s) (gi and 20875941/6677773); (Calcium channel (gi 3202010) (M): and Slo channel protein isoform (gi 3644046) (M); Potassium and conductance calcium activated channel (gi 6754436 and NP_034740) (M);; Regulator of G-protein signalling 8 and (gi 9507049).
[4]; [5]
  extent of DNA synthesis: reduced the extent of DNA synthesis
[4]; normal myocytes
  extent of DNA synthesis: reduced the extent of DNA synthesis
